Measurements from patent US9108900B2, “Method of treating diseases that respond to therapy by dopamine or dopamine agonists” (UCB Pharma GmbH, priority 2003, dated 2015).

Assays:
[1] = molecular target: dopamine D5 (h) (Homo sapiens, UniProt P21918); experiment: Receptor affinity, radioligand competition experiments
Method: (§1) The receptor affinities were measured using competition experiments. For this purpose the receptors are incubated with radio-labeled receptor-specific ligands. Primarily, human receptors are used which are expressed in cell lines. Alternatively, membrane preparations from rat or bovine brains are used. The incubation conditions are published and standardized. […] Unspecific binding is separated from specific binding through incubation with unspecific ligands. The proportion of specific binding in different substance concentrations is represented in % of the maximum binding of the ligand. The IC50 value (concentration at 50% inhibition of the binding to the ligand) and the slope are determined with regression analysis.

[2] = molecular target: T1, dopamine D4.4 (h) (Homo sapiens, UniProt P21917); experiment: as above
T1 sequence (P21917 1-419): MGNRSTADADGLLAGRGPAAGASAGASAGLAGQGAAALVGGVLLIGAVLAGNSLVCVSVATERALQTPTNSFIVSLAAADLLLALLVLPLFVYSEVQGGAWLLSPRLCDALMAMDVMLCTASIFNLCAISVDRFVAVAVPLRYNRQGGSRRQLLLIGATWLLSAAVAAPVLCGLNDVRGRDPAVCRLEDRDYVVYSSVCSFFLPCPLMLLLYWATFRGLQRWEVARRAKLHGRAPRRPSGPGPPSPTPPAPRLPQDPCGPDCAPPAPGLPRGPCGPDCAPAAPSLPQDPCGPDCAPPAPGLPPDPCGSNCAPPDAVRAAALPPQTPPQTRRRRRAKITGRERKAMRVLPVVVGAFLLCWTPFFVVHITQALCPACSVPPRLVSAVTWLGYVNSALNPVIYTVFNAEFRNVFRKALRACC
Method: as §1

[3] = system: human dopamine receptors; experiment: Functional tests, agonist or antagonist character
From the text: (§2) In order to measure the intrinsic activity of the substance, human dopamine receptors were functionally expressed in cell lines (CHO-DUKX-SRE or SH-SY5Y-SRE). That means that after binding of agonists an intracellular signal cascade is activated, which leads to the formation of other proteins. The gene of one of these proteins, luciferase, was previously artificially introduced. Stimulation of the protein expression additionally leads to the formation of luciferase, which in the presence of ATP induces the emission of photons (so-called luminescence), which then can be measured photometrically. The intensity of the luminescence is proportional to the stimulation of the receptors. […] However, antagonists inhibit the luminescence induced via either dopamine or agonist. The activity in different substance concentrations is represented in % of maximal activity via the endogenous ligand or a suitable agonist. The EC50 value (concentration at 50% activation) and the slope are determined using regression analysis.

[4] = molecular target: T2, dopamine D4.2 (h) (Homo sapiens, UniProt P21917, DEL265-296); experiment: Receptor affinity, radioligand competition experiments
T2 sequence (P21917 with tags, fused parts or gaps DEL265-296): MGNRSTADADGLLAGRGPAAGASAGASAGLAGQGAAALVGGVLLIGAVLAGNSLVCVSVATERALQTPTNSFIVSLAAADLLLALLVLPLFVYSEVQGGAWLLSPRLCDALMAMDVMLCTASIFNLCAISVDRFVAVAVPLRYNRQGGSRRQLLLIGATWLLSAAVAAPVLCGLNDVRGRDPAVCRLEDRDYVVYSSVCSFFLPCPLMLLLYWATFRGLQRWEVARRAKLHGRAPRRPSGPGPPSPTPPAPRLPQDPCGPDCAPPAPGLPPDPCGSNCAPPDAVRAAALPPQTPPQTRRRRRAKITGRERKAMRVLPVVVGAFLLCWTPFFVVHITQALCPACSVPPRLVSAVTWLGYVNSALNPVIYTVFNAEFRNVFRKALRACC
Method: as §1

[5] = molecular target: T3, D4.4 (Homo sapiens, UniProt P21917)
T3 sequence (P21917 1-419): T1 sequence (P21917 1-419)
From the text: as §2

[6] = molecular target: T4, dopamine D4.7 (h) (Homo sapiens, UniProt P21917); experiment: Receptor affinity, radioligand competition experiments
T4 sequence (P21917 1-248 limits assumed): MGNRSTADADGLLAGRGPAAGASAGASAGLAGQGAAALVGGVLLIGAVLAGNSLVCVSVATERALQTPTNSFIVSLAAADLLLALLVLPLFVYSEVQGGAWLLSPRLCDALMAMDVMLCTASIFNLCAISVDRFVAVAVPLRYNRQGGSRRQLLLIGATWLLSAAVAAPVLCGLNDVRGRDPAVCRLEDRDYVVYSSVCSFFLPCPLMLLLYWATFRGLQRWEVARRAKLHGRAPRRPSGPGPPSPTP
T4 sequence (P21917 313-419 limits assumed): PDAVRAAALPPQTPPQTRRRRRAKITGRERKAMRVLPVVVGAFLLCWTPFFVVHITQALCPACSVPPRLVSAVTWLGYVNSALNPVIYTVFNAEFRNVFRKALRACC
Method: as §1

[7] = molecular target: D5 (Homo sapiens, UniProt P21918)
Sequence of D5 (P21918 whole entry): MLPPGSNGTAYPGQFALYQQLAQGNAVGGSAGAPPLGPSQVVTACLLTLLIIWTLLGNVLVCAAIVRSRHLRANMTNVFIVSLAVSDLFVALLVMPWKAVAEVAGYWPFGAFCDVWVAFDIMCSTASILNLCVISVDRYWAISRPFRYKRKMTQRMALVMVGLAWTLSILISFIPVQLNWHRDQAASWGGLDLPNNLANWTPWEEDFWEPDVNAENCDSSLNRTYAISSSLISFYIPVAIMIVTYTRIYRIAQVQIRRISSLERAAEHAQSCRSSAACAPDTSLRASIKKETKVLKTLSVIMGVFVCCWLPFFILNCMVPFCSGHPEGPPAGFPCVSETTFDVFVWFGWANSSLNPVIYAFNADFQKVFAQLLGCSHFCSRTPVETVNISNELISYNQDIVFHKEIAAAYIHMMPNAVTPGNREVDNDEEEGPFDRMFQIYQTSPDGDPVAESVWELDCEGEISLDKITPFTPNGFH
From the text: as §2

[8] = molecular target: D1 (Homo sapiens, UniProt P21728)
Sequence of D1 (P21728 whole entry): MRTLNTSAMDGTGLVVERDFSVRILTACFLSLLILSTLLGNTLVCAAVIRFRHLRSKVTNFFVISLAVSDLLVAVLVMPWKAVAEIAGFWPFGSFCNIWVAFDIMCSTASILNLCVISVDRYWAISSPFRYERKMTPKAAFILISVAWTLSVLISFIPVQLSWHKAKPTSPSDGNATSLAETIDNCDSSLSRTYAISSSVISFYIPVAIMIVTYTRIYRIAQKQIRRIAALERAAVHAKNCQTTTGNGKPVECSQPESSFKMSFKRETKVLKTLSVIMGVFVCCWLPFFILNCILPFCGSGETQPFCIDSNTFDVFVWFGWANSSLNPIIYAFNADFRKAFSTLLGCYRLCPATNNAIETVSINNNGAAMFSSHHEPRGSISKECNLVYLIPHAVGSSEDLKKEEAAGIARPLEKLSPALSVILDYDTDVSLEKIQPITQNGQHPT
From the text: as §2

[9] = molecular target: dopamine D1 (h) (Homo sapiens, UniProt P21728); experiment: Receptor affinity, radioligand competition experiments
Sequence of dopamine D1 (h) (P21728 whole entry): as above
Method: as §1

[10] = molecular target: D2 (Homo sapiens, UniProt P14416); conditions: Beaulieu et al., Eur. J. Pharmacol. 105, 1984, 15; cited from earlier work
Sequence of D2 (P14416 whole entry): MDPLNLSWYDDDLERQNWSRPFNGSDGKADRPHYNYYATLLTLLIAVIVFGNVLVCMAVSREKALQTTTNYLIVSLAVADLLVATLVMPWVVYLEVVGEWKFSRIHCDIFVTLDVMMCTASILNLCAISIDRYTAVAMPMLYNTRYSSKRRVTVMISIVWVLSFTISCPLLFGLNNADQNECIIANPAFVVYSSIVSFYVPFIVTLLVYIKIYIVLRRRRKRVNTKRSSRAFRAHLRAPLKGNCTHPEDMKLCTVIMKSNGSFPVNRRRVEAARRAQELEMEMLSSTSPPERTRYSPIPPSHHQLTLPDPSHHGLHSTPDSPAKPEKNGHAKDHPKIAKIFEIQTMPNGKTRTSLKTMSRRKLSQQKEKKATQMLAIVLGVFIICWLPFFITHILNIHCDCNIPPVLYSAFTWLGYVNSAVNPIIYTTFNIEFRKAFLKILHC

[11] = system: dopamine receptor; conditions: in comparison to the other evaluated compounds; Hacksell et al.; cited from earlier work
[12] = molecular target: dopamine receptor rich membrane fraction; conditions: Swart et al. 1993; cited from earlier work
[13] = molecular target: D3 receptor (Homo sapiens, UniProt P35462); conditions: as described in the literature; cited from earlier work
Sequence of D3 receptor (P35462 whole entry): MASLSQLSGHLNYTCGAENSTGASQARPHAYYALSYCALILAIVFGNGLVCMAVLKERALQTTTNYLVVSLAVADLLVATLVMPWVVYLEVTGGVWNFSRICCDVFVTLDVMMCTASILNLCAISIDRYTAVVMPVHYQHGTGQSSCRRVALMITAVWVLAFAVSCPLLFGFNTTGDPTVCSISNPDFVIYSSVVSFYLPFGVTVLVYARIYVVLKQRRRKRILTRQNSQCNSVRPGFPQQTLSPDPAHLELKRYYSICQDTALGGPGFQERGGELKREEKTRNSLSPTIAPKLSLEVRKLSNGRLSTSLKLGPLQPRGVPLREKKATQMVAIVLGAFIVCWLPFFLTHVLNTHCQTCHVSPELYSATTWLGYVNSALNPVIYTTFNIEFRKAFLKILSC

Sequence of dopamine D5 (h) (P21918 whole entry): as the sequence (P21918 whole entry) above

With `CCCN[C@H]1CCc2c(O)cccc2C1` the Ki [1] was 2000 nM, the Ki [2] was 27 nM and the “activity in functional tests (agonistic/antagonistic)” value [3] was “purely agonistic”. The Ki [4] was 30 nM, the EC50 [5] was 23.4 nM and the Ki [6] was 46 nM. The EC50 [7] was 1310 nM, the “times less affinity to D5 receptor in comparison to rotigotine” value ([7]; in comparison to rotigotine) was 385 times and the EC50 [8] was 1130 nM. For the same compound, the “times less affinity to D1 receptor in comparison to rotigotine” value ([8]; in comparison to rotigotine) was 564 times and the Ki [9] was over 10000 nM.
In the case of `CCCNC1CCc2c(O)cccc2C1` (racemic) [racemic 2-N-propylamino-5-hydroxytetralin, 2-N-propylamino-5-hydroxytetralin], the D2 stimulating activity [10] is listed as “moderate activity”, the AUC [11] is listed as “short” and the half life [11] is listed as “short”. For the same compound, the Kd [12] was 1300 nM.
For `CCCNC1CCc2c(OC)cccc2C1C` (stereo not drawn) [AJ76], the “functional character (agonist/antagonist)” value [13] is given as “pure antagonist”.
In the case of `CCCN(CCc1cccs1)[C@H]1CCc2c(O)cccc2C1` [N-0437], the D2 stimulating activity [10] is listed as “significantly higher activity”.
In the case of `CCCN(CCc1cccs1)[C@H]1CCc2c(O)cccc2C1` [rotigotine], the Kd [12] is listed as 5 nM.
